Values quoted from earlier work, collected in patent publication US20180256462A1, “ALCOHOL-BASED SKIN SANITIZER HAVING MICROBICIDAL PROPERTIES” (DEB IP LIMITED, priority 2015, published 2018).
Where two headings read alike, the source gives them in different places.

Assays:
Staphylococcus aureus = details: low concentrations (0.5 to 2 mM), disk diffusion
Microsporum gypseum [1] = details: 10% in Vaseline petroleum jelly, topical daily for 3 weeks; for skin lesion scoring: first week of application; for histopathologic examination of skin tissues (hyperkeratosis, inflammatory cell infiltration): versus positive control
Lactobacillus fermentum = details: live cells of Lactobacillus fermentum, flow cytometry
Microsporum gypseum [2] = tested on: Microsporum gypseum

Row | SMILES | susceptibility of Staphylococcus aureus to ciprofloxacin, clindamycin, erythromycin, gentamicin, tetracycline, and vancomycin (Staphylococcus aureus) | hair culture test (Microsporum gypseum [1]) | skin lesion scoring (Microsporum gypseum [1]) | histopathologic examination of skin tissues (hyperkeratosis, inflammatory cell infiltration) (Microsporum gypseum [1]) | intracellular accumulation of ethidium bromide (Lactobacillus fermentum) | sensitization of Escherichia coli to polymyxin B (Escherichia coli) | MIC (Microsporum gypseum [2]) | MIC (Microsporum gypseum [2]; positive control) [µg/mL]
1 | C=CC(C)(O)CCC=C(C)CCC=C(C)C (mixture of isomers) [nerolidol, 3,7,11-trimethyl-1,6,10-dodecatrien-3-ol] | enhanced the susceptibility of Staphylococcus aureus | improved the skin lesions infected by M. gypseum | clinically effective at improving the lesion during the first week of application | lower degree of hyperkeratosis and inflammatory cell infiltration than the positive control | promoted the intracellular accumulation of the membrane-impermeant nucleic acid stain ethidium bromide | sensitized Escherichia coli to polymyxin B | 0.5-2% | 
2 | Clc1ccc(COC(Cn2ccnc2)c2ccc(Cl)cc2Cl)cc1 (stereo not drawn) [econazole] |  |  |  |  |  |  |  | 4 to 16
3 | C=CCc1ccc(O)c(OC)c1 [eugenol] |  | did not | clinically effective at improving the lesion during the first week of application | lower degree of hyperkeratosis and inflammatory cell infiltration than the positive control |  |  | 0.01-0.03% | 
4 | CC(C)=CCC[C@](C)(O)C1CC=C(C)CC1 (stereo partly drawn) [bisabolol] | enhanced the susceptibility of Staphylococcus aureus |  |  |  | promoted the intracellular accumulation of the membrane-impermeant nucleic acid stain ethidium bromide |  |  | 
5 | CC(C)=CCC/C(C)=C/CC1CCCC1=O (stereo not drawn) [apritone] | enhanced the susceptibility of Staphylococcus aureus |  |  |  | promoted the intracellular accumulation of the membrane-impermeant nucleic acid stain ethidium bromide |  |  | 
6 | CC(C)=CCCC(C)=CCCC(C)=CCO [farnesol] |  |  |  |  | promoted the intracellular accumulation of the membrane-impermeant nucleic acid stain ethidium bromide | sensitized Escherichia coli to polymyxin B |  | 
